Measured values published in US20230293439A1, “SPRAY DRYING OF SUPERSATURATED SOLUTIONS OF API WITH ACETIC ACID” (BEND RESEARCH, INC., priority 2020, published 2023).
Values after ≈ are worked out from the molar mass of the structure shown. Read-outs that look alike come from different tables or passages of the source.

Experiments:
[1] = Solubility determination of nilotinib (saturated solution, 24 h stirring, filtrate analysed by gravimetry); assay type: physicochemical; details: for solubility at 24 h: organic solvent or mixture, thermodynamic from solid
Description: A saturated solution of nilotinib was prepared in the respective solvent at the respective temperature with excess crystalline nilotinib and allowed to stir for 24 h, a suspension of nilotinib in the solvent, which was saturated with nilotinib, was obtained. The suspension was filtered through a 1 micrometer glass filter. Crystalline solubility was determined by analysis of the filtrate, which is the saturated solution, by gravimetry (weighing).

[2] = Metastability of the supersaturated nilotinib solution from the Solvent-Shift route (visual check for precipitation)
[3] = Glacial Acetic Acid, wt % of saturated solution
[4] = Methanol:Acetic Acid 9:1 (w:w), wt % of saturated solution
[5] = Methanol, wt % based on weight of the saturated solution

Cc1cn(-c2cc(NC(=O)c3ccc(C)c(Nc4nccc(-c5cccnc5)n4)c3)cc(C(F)(F)F)c2)cn1 [Nilotinib]
solubility at 24 h ([1]; 25 °C, Glacial Acetic Acid, mg per ml saturated solution, read-out: Solubility at 25° C.): 135000 µg/mL (≈ 255 mM)
solubility at 24 h ([1]; 25 °C, Methanol:Acetic Acid 9:1 (w:w), mg per ml saturated solution, read-out: Solubility at 25° C.): 6000 µg/mL (≈ 11.3 mM)
solubility at 24 h ([1]; 25 °C, Methanol, mg of nilotinib per ml saturated solution, read-out: Solubility at 25° C.): 2800 µg/mL (≈ 5.29 mM)
solubility at 24 h ([1]; 40 °C, Glacial Acetic Acid, mg per ml saturated solution, read-out: Solubility at 40° C.): 233000 µg/mL (≈ 440 mM)
Solubility at 25° C. [1, 3]: 12.7 wt %
Solubility at 40° C. [1, 3]: 21.1 wt %
Solubility at 40° C. ([1]; Methanol:Acetic Acid 9:1 (w:w), mg per ml saturated solution): 8 mg/mL (≈ 15.1 mM)
Solubility at 25° C. [1, 4]: 0.76 wt %
Solubility at 40° C. [1, 4]: 1.0 wt %
Solubility at 40° C. ([1]; Methanol, mg of nilotinib per ml saturated solution): 5.0 mg/mL (≈ 9.44 mM)
Solubility at 25° C. [1, 5]: 0.36 wt %
Solubility at 40° C. [1, 5]: 0.66 wt %
Time at which visible solids were observed ([2]; Example 1: 2.15 wt % nilotinib in 91.2:8.8 (w:w) methanol:acetic acid, 40° C., no polymer): 7.5 h
Appearance of the control mixture (nilotinib weighed directly into the solvent mixture) ([2]; Example 1 control: 2.06 wt % nilotinib in 89.5:10.5 (w:w) methanol:acetic acid, 40° C.): visible slurry
Time at which visible solids were observed ([2]; Example 3: 2.19 wt % nilotinib in 85.0:9.0:6.0 (w:w:w) methanol:acetic acid:PVP-VA64, 40° C.): 4 h
